Assay results: US11827636B2, “Degradation of cyclin-dependent kinase 8 (CDK8) by conjugation of CDK8 inhibitors with E3 ligase ligand and methods of use” (DANA-FARBER CANCER INSTITUTE, INC., priority 2016, dated 2023)

How the values were obtained:
Format in all cases: cell-based
[1] = biological target: T1, CDK8 (Homo sapiens, UniProt P49336); test: Enzyme degradation assay (western blot), CDK8 level in wild-type (WT) Molt4 cells; conditions: 1 μM compound, 6 hours
T1 construct: endogenous in cells; host or cells: wild-type Molt4 cells
Description: (§1) Cells are treated with a control or a bifunctional compound of the application alone or in combination with an agent that blocks proteasomal degradation at a single concentration or various concentrations. After treatment, cells are washed and harvested by resuspending in buffer and lysed on ice 30 minutes. Lysates are then cleared by centrifugation. Samples are boiled and equal amount of protein is loaded onto polyacrylamide gel. The gel is transferred to nitrocellulose and blotted for CDK8, mTOR, STAT1 serine 727 phosphorylation or actin.
(§2) The indicated cells were treated with vehicle control or the bifunctional compounds of the application, at a single or various concentrations, alone or in combination with bortezomib, an agent that blocks proteasomal degradation. After treatment, cells were washed with PBS and lysed in lysis buffer and then cleared by centrifugation. Protein concentrations were determined by BCA assay, and equal amounts of protein were loaded onto gels to perform Western blots. Gels were transferred to nitrocellulose, blocked with 5% milk in TBS-T, and probed for CDK8, mTOR, S727-STAT1, and Actin. Antibody binding was detected using near-infrared-dye-conjugated secondary antibodies.

[2] = tested on: pS727-STAT1; test: Western blot, pS727-STAT1 level in wild-type (WT) Molt4 cells; conditions: 1 μM compound, 6 hours
Description: as §1, §2

[3] = biological target: T2, CDK8 (Mus musculus, UniProt Q8R3L8); test: Enzyme degradation assay (western blot), CDK8 level in MC38 colorectal cancer cells; conditions: 6 hours
T2 construct: levels of CDK8, pS727-STAT1, and actin in MC38 colorectal cancer cells; endogenous in cells; host or cells: MC38 colorectal cancer cells
T2 sequence (Q8R3L8 1-464): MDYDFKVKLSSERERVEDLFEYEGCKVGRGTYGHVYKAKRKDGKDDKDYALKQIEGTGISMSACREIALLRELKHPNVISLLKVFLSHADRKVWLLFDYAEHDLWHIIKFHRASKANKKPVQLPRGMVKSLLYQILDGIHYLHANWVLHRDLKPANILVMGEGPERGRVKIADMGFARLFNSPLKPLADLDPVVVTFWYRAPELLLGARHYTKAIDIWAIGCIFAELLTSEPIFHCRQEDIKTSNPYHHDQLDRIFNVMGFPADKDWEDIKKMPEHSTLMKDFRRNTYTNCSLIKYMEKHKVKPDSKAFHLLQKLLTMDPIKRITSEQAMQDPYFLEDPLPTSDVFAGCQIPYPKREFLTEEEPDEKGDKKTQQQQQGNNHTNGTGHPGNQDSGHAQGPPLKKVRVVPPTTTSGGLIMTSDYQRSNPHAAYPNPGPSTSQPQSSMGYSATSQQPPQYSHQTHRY
T2 sequence (Q62447 1-283 partner): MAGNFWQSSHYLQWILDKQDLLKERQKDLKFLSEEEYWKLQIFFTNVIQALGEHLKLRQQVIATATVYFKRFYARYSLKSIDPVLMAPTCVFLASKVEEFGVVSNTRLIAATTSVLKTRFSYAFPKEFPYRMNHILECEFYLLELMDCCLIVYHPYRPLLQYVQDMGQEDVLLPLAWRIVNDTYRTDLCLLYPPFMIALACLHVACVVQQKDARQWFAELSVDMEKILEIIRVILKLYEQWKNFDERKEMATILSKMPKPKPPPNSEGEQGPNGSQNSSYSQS
T2 sequence (Q8C7D2 1-445 partner): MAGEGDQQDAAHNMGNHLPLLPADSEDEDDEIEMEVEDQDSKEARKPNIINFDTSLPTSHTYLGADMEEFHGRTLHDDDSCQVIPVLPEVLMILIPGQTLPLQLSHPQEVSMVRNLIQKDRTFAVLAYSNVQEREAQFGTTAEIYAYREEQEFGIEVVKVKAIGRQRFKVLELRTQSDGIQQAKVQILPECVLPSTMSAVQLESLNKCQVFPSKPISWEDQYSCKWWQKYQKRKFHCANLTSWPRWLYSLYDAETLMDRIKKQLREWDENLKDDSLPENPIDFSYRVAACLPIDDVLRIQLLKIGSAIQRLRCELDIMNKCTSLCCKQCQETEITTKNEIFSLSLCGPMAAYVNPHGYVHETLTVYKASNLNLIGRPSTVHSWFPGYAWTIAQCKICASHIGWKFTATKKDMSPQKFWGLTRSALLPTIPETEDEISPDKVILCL
Description: as §1
Cells are treated with a control or a bifunctional compound of the application at various concentrations for a desired period of time. Cells are then lysed in a suitable buffer. Protein concentration may be measured with any appropriate assay known in the art. […] The signals from the label are detected.
The indicated cells were treated with vehicle control or the bifunctional compounds of the application, at a single or various concentrations, alone or in combination with bortezomib, an agent that blocks proteasomal degradation. […] Protein concentrations were determined by BCA assay, and equal amounts of protein were loaded onto gels to perform Western blots. […] Antibody binding was detected using near-infrared-dye-conjugated secondary antibodies. […]

[4] = tested on: pS727-STAT1; test: Western blot, pS727-STAT1 level in MC38 colorectal cancer cells; conditions: 6 hours
Description: as §1, §2

[5] = 1 μM compound in combination with 10 nM bortezomib

T1 sequence (P49336 whole entry): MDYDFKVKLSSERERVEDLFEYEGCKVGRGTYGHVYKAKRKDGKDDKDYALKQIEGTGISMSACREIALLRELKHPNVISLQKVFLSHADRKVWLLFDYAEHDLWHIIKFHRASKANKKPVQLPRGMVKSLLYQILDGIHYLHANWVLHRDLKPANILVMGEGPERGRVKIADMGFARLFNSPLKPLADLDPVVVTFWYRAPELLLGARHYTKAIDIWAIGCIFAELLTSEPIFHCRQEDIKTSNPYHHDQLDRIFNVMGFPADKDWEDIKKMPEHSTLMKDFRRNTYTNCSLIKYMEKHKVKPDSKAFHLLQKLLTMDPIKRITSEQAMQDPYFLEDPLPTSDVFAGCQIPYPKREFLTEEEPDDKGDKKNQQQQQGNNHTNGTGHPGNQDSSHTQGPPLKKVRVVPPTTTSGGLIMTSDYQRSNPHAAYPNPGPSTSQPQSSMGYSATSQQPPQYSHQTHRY
T1 sequence (P24863 whole entry partner): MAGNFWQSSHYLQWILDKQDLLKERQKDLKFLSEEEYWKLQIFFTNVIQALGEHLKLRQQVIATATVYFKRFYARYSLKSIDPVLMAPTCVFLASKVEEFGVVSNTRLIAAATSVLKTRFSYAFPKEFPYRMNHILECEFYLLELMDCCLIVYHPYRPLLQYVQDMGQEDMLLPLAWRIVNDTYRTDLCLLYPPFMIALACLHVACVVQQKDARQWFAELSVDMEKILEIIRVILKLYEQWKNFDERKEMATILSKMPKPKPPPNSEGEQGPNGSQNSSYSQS
T1 sequence (Q96SW2 whole entry partner): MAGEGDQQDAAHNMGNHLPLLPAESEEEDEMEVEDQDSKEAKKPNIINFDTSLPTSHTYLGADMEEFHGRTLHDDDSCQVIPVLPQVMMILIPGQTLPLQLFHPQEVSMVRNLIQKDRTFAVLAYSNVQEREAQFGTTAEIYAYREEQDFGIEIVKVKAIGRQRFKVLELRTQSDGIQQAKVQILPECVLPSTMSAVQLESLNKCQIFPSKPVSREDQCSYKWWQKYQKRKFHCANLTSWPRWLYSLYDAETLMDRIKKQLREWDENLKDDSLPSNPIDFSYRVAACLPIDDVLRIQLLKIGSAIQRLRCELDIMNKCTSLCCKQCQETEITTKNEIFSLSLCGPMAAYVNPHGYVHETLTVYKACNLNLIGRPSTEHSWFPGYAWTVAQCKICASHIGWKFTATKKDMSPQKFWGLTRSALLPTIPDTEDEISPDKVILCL

Row | degradation of CDK8 (western blot level of CDK8) [1] | degradation of CDK8 when the proteasome is inhibited with bortezomib [3, 5] | degradation of CDK8 (western blot level of CDK8) ([3]; 1 μM compound, alone) | SMILES | phosphorylation of Ser727-STAT1 [2] | reduction in the level of pSer727-STAT1 when the proteasome is inhibited with bortezomib [4, 5] | level of phosphorylation of the CDK8 substrate Ser727-STAT1 ([4]; 1 μM compound, alone)
1 | efficiently degraded CDK8 | – | – | O=C1CCC(N2C(=O)c3cccc(NCCCCn4cc(-c5ccc(-c6cncc(Cl)c6N6CCC7(CCNC7=O)CC6)cc5)cn4)c3C2=O)C(=O)N1 (centres unmarked) [Compound I-6, 4-(4-(4-(4-(5-chloro-4-(1-oxo-2,8-diazaspiro[4.5]decan-8-yl)pyridin-3-yl)phenyl)-1H-pyrazol-1-yl)butylamino)-2-(2,6-dioxopiperidin-3-yl)isoindoline-1,3-dione] | blocked phosphorylation | – | –
2 | efficiently degraded CDK8 | rescued | efficiently degraded CDK8 | O=C1CCC(N2C(=O)c3cccc(NCCOCCOCCOCCOCCOCCC(=O)N4CCN(c5ccc(-n6c(=O)ccc7cnc8ccc(-c9ccc%10ccncc%10c9)cc8c76)cc5C(F)(F)F)CC4)c3C2=O)C(=O)N1 (centres unmarked) [Compound I-3, 2-(2,6-dioxopiperidin-3-yl)-4-((18-(4-(4-(9-(isoquinolin-7-yl)-2-oxobenzo[h][1,6]naphthyridin-1(2H)-yl)-2-(trifluoromethyl)phenyl)piperazin-1-yl)-18-oxo-3,6,9,12,15-pentaoxaoctadecyl)amino)isoindoline-1,3-dione] | blocked phosphorylation | rescued | lowered the level of phosphorylation
